{"source": "paper PMC10144994", "about": "“Bioactive Metabolite from Endophytic Aspergillus versicolor SB5 with Anti-Acetylcholinesterase, Anti-Inflammatory and Antioxidant Activities: In Vitro and In Silico Studies” (Microorganisms, 2023)", "molecular_target": "T1, LOX-1 (lipoxygenase from Glycine max, type I-B) (Glycine max, UniProt P08170)", "T1 construct": "gene LOX1.1", "T1 sequence (P08170 1-839)": "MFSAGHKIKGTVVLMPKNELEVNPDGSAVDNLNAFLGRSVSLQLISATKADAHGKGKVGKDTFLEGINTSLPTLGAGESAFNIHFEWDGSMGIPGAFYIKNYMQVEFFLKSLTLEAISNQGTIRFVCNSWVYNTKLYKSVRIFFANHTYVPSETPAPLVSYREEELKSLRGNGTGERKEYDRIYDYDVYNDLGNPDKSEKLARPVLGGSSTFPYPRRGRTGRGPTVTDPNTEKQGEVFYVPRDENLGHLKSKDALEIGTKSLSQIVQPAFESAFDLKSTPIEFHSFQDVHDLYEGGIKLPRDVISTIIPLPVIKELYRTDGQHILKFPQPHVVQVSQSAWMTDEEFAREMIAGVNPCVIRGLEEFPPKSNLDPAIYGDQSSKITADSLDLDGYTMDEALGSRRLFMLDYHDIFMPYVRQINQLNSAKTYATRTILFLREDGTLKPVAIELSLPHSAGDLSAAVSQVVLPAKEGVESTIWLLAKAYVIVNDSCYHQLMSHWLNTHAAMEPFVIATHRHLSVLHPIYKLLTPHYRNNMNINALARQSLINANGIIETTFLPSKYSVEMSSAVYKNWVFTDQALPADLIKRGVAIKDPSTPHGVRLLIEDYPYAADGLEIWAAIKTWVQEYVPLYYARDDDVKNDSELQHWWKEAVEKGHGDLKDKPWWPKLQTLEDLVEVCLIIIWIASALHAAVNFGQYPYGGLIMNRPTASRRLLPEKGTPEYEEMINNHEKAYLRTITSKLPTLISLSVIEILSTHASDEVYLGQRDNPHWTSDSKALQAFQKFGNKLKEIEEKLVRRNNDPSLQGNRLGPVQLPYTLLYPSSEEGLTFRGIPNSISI", "assay": "soybean LOX, linoleic acid substrate, absorbance at […] nm", "format": "biochemical", "data": [{"compound": "COc1cc(O)c2c(c1)C(=O)c1cc(C)cc(O)c1C2=O", "note": "[C1, 1,8-dihydroxy-3-methoxy-6-methylanthracene-9,10-dione]", "values": [{"measurement": "IC50", "value": 61.7, "unit": "µM"}]}]}
